Reference: PMC5108032, “Discovery of a Quinoline-4-carboxamide Derivative with a Novel Mechanism of Action, Multistage Antimalarial Activity, and Potent in Vivo Efficacy” (Journal of Medicinal Chemistry, 2016)
In brackets after ≈: the same amount, converted by molar mass.

Experiment: Kinetic aqueous solubility (laser nephelometry)
Type: physicochemical
Conditions: MilliQ water with 1.0% DMSO, aqueous with cosolvent or surfactant or cyclodextrin, kinetic from dmso stock
Excerpt: inhibition at top, C= EC50, D= slope, x= inhibitor concentration and y= % inhibition. […]
reach 100% of inhibition, B was fixed to 100 only when at least 50% of inhibition was reached.
Plasmodium falciparum late stage (IV-V) gametocyte high content imaging assay Plasmodium falciparum NF54-pfs16-LUC-GFP stage IV-V Gametocytes were produced as described previously.5 Compounds were solubilized in DMSO and serially diluted in three concentrations per log standard curves in DM SO. One µl of compound was subsequently diluted in 25µl of water (4% DMSO) and 5µl transferred into the base of 384 well PerkinElmer CellCarrier plates. […]
Post incubation, 5µl of MitoTracker® Red CM -H2Xros (MTR) solution (0.66ug/ml) was added to all wells and the plates incubated for a further 16hours. The assay plates were then imaged and the number of viable gametocytes determined for test compounds plus 0.4%DMSO and 5µM Puromycin. […]
Assay was performed as previously reported.6 Briefly blood containing P. berghei CTRPp-GFP gametocytes was rapidly harvested from infected mice and introduced to test compounds pre-diluted in ookinete medium (to induce gamete formation and support ookinete development) in 96-well plates. […] All assays were performed in triplicate independent experiments and EC50 values calculated in Graphpad Prism. […]

O=C(NCCN1CCCC1)c1cc(NCCCCN2CCOCC2)nc2ccc(Cl)cc12 [Compound 27, 6-Chloro-2-((4-morpholinobutyl)amino)-N-(2-(pyrrolidin-1-yl)ethyl)quinoline-4-carboxamide]
solubility kinetic: 220 µM (≈ 101 µg/mL)
